According to patent US9096591B2, “Tetracyclic compounds” (Medivation Technologies, Inc., priority 2007, dated 2015):
Where two headings read alike, the source gives them in different places.

Legend:
[1] = molecular target: T1, human recombinant histamine H2 receptor (Homo sapiens, UniProt P25021); assay: Histamine H2 radioligand binding ([125I]Aminopotentidine); details: for inhibition at 0.3 µM: 0.3 μM compound
T1 construct: expressed in transfected cells; host or cells: CHO-K1 cells
Method: Non-specific binding was estimated in the presence of 3 μM Tiotidine. […] Biochemical assay results are presented as the percent inhibition of specific binding in Table 5.
Non-specific binding was estimated in the presence of 3 μM Tiotidine. […] Compounds were screened at 1 μM, using 1% DMSO as vehicle. Biochemical assay results are presented as the percent inhibition of specific binding in Table 6.

[2] = molecular target: T2, human recombinant histamine H1 receptor (Homo sapiens, UniProt P35367); assay: Histamine H1 radioligand binding ([3H]Pyrilamine); details: for inhibition at 0.03 µM: 0.03 μM compound; for inhibition at 0.1 µM: 0.1 μM compound
T2 construct: expressed in transfected cells; host or cells: CHO cells
Method: To evaluate in radioligand binding assays the activity of compounds of the invention, human recombinant histamine H1 receptor expressed in Chinese hamster ovary (CHO) cells (De Backer M D et al. Biochem. Biophys. Res Comm. 197(3):1601, 1993) in a modified Tris-HCl buffer (50 mM Tris-HCl, pH 7.4, 2 mM MgCl2, 100 mM NaCl, 250 mM Sucrose) were used. […] Non-specific binding was estimated in the presence of 1 μM pyrilamine. Receptor proteins were filtered and washed, the filters were then counted to determine [^3H]pyrilamine specifically bound. […] Biochemical assay results are presented as the percent inhibition of specific binding in Table 5.
To evaluate in radioligand binding assays the activity of compounds of the invention, human recombinant histamine H1 receptor expressed in Chinese hamster ovary (CHO) cells (De Backer, M. D. et al., Biochem. Biophys. Res. Comm. 197(3):1601, 1993) in a modified Tris-HCl buffer (50 mM Tris-HCl, pH 7.4, 2 mM MgCl2, 100 mM NaCl, 250 mM Sucrose) was used. […] Non-specific binding was estimated in the presence of 1 μM pyrilamine. Receptor proteins were filtered and washed, the filters were then counted to determine [^3H]Pyrilamine specifically bound. Compounds were screened at 1 μM, using 1% DMSO as vehicle. Biochemical assay results are presented as the percent inhibition of specific binding in Table 6.

[3] = molecular target: T3, human recombinant dopamine D2L receptor (Homo sapiens, UniProt P14416); assay: Dopamine D2L radioligand binding ([3H]Spiperone); details: percent inhibition of specific binding
T3 construct: expressed in transfected cells; host or cells: CHO cells
Method: Non-specific binding was estimated in the presence of 10 μM Haloperidol. Receptor proteins were filtered and washed, the filters were then counted to determine [^3H]Spiperone specifically bound. […] Biochemical assay results are presented as the percent inhibition of specific binding in Table 6.

[4] = percent inhibition of specific binding, screened at 1 μM, read-out: Inhibition of ligand binding, Hist. H2
[5] = percent inhibition of specific binding, screened at 1 μM, read-out: Inhibition of ligand binding, Hist. H1
[6] = 0.1 nM [125I]Aminopotentidine, read-out: Histamine Binding H2, percent inhibition of specific binding
[7] = 1 μM compound, 0.1 nM [125I]Aminopotentidine, read-out: Histamine Binding H2, percent inhibition of specific binding
[8] = […] [3H]Pyrilamine, read-out: Histamine Binding H1, percent inhibition of specific binding
[9] = 1 μM compound, […] [3H]Pyrilamine, read-out: Histamine Binding H1, percent inhibition of specific binding

T2 sequence (P35367 whole entry): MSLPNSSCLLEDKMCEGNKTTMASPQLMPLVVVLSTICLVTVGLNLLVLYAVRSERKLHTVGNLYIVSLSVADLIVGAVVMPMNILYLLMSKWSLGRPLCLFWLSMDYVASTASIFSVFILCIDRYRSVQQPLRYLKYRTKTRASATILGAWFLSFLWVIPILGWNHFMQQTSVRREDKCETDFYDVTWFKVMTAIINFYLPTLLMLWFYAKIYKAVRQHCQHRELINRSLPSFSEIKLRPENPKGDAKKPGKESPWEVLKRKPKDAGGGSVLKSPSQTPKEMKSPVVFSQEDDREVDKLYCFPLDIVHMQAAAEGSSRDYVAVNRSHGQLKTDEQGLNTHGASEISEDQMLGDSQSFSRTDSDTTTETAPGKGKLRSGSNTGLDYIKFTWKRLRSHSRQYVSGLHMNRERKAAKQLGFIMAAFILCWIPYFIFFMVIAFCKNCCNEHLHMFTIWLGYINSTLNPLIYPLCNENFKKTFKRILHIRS
T1 sequence (P25021 whole entry): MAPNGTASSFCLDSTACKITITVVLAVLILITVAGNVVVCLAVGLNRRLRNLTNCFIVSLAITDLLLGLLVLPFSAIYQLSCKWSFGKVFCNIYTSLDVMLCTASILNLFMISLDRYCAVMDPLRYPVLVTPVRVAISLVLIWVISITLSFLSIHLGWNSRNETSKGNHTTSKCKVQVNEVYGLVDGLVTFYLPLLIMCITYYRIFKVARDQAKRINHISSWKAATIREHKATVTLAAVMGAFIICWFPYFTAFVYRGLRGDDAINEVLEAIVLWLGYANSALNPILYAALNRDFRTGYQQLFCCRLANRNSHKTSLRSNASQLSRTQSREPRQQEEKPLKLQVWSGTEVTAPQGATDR
T3 sequence (P14416 whole entry): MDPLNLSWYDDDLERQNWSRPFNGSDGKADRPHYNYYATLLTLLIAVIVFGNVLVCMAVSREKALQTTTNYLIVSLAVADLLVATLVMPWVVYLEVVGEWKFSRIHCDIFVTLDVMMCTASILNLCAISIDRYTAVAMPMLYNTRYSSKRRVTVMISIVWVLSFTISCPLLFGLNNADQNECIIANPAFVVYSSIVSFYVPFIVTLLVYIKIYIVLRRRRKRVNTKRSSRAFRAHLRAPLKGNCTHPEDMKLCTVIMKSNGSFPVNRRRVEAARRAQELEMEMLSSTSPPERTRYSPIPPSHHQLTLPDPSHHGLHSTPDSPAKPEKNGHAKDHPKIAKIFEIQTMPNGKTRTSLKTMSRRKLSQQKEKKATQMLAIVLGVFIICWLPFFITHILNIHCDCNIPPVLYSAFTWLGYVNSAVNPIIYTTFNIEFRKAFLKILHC

inhibition at 1 µM [1, 4]	inhibition at 1 µM [2, 5]	inhibition at 1 µM [1, 7]	inhibition at 1 µM [2, 9]	SMILES	other results
73%	96%	73%	96%	CCN1CCc2c(c3cc(C)ccc3n2CCc2ccc(C)cc2)C1 [Compound 26]	inhibition at 0.3 µM [1, 6]: 34%; inhibition at 0.03 µM [2, 8]: 67%; inhibition at 0.1 µM [2, 8]: 81%
		54%	99%	Cc1ccc2c(c1)c1c(n2CCc2ccccc2)CCN(C2CC2)C1 [Compound 35, 2-cyclopropyl-2,3,4,5-tetrahydro-8-methyl-5-phenethyl-1H-pyrido[4,3-b]indole]	
53%	101%	53%	101%	CCN1CCc2c(c3cc(C)ccc3n2CCc2ccccc2)C1 [Compound 37]	inhibition at 0.3 µM [1, 6]: 22%; inhibition at 0.03 µM [2, 8]: 59%; inhibition at 0.1 µM [2, 8]: 78%
		13%	-4%	CCOC(=O)N1CCc2c(c3cc(C)ccc3n2CCc2cccnc2)C1 [Compound 217]	

The remaining lines, values behind:

SMILES	inhibition at 1 µM [1, 4]	inhibition at 1 µM [2, 5]	inhibition at 1 µM [1, 7]	inhibition at 1 µM [2, 9]	other results
Cc1ccc(C(O)Cn2c3c(c4ccccc42)CN(C)CC3)cc1 (stereo not shown) [Compound 7]	58%	47%			
CN1CCc2c(c3cc(Cl)ccc3n2C[C@@](C)(O)c2ccc(F)cc2)C1 [Compound 110]					Inhibition of ligand binding, Dop. D2L [3]: 35%
CN1CCc2c(c3cc(Cl)ccc3n2CCc2n[nH]c(=S)n2C)C1(C)C [Compound 218]			34%		Histamine Binding H1, percent inhibition of specific binding ([2]; 1 μM compound, […] [3H]Pyrilamine): 80%
CN1Cc2c(n(CCc3n[nH]c(=S)n3C)c3ccc(C(F)(F)F)cc23)CC1(C)C [Compound 219]			71%	89%	
